What was measured:
[1] = system: DN32 cells (NKT cell line) co-cultured with CD1d transfected T84D cells; test: CD1d-restricted NKT cell activation (T84D/DN32 co-culture, IL-2 ELISA); type: cell-based, murine; settings: for CD1d dependent NKT cell activation (IL-2 present in the supernatants): solvent control, PI or myo-inositol, FIG. 2
Procedure: (§1) A CD1d transfected epithelial cell line T84D was pulsed with alpha-GalactosylCeramide and co-cultured with PI at different concentrations. NKT cell activation was determined by measurement of IL-2 present in the supernatants. FIG. 2: Phosphatidyl-inositol but not myo-inositol blocks CD1d dependent NKT cell activation. A CD1d transfected epithelial cell line T84D was pulsed with a GalactosylCeramide and co-cultured with either solvent control, PI or myo-inositol. NKT cell activation was determined by measurement of IL-2 present in the supernatants. FIG. 3: Differential effect of PI and PS on cellular viability and immune suppression. T cells were suspended at 10^6 cells/ml in 24-wells plates (1 ml suspension per well). Cells were either left untreated (PMA 0 Cal 0) or activated with 5 ng/ml PMA +0.1 μg/ml calcium ionophore A23187 (PMA 5 ng/ml Cal 0.1 ug/ml) in the presence of PI or PS at the indicated concentrations (expressed in pg/ml). Panel A: Following a 24 hour incubation period in the presence of the indicated lipids and stimuli cellular viability was measured using flow cytometric detection of 7-AAD stained cells. […] FIG. 4: IPL strongly affects early survival in oxazolone colitis model. For experimental details see Example 2A. FIG. 5: Suppression of IL-2 production by intestinal T cells upon IPL intrarectal treatment of oxazolone-colitis mice. Mice were treated with saline (group A) or PI (group B) twenty minutes prior to challenge with oxazolone to induce colitis. Mice were sacrificed and intestinal T cells were analyzed for IL-2 production upon stimulation by aCD3/aCD28 during a period of 48 hours (panel A) or 72 hours (panel B). […] C Histopathology of the whole colon was assessed by blindly scoring each separate field of view at a 4× magnification by means of a TNBS score. […]
On day 0, T84D cells (a human epithelial cell line transfected with CD1d) were incubated overnight with a GalCer (10 mg/ml). […] Supernatants were collected and IL-2 cytokine production by DN32 (reflecting T cell activation) was determined by means of ELISA.

oxazolone colitis = test: Oxazolone colitis model, intra-rectal PI; type: in vivo, mice
Procedure: On day 0 male wild type black/6 mice (Charles Rivers) of 7-10 weeks old were sensitized epicutaneously with 150 μl 3% 4-ethoxymeyhylene-2-phenyl-oxazolin-5-one (oxazolone; Sigma) in 100% ethanol. At day 5, mice were challenged, under anesthesia of ketamine (80 mg/kg) and xylazine (10 mg/kg), by rectal administration of 100 μl 2% oxazolone in aqueous ethanol (50%). Twenty minutes prior to challenge mice were treated intra-rectally with 100 μl saline (control) or PI (2 mg/ml). All […] groups contained 8 mice. Mice were weighted at day 5, 6, 7, and 8 and were sacrificed at day 8.
Colonic tissue was fixed with 4% natural buffered formalin solution, embedded in paraffin, cut into 5μ tissue sections, and stained with hematoxylin and eosin (H&E). Using a score that has been described previously for oxazolone colitis (REF), the stained sections were examined for evidence of colitis. Spleen, axillary lymph nodes (ALN), mesenteric lymph nodes (MLN) and iliacal lymph nodes (ILN) were isolated and stimulated ex-vivo with either PBS (control) or with aCD3/aCD28 (100 μl of 2 μg/ml each) in IMDM medium. After 48 and 72 hours, the production of IL-2 was measured by means of ELISA (Beckton & Dickinson).

T cells [2] = test: Cellular viability of T cells (flow cytometric 7-AAD detection); type: cell-based; settings: FIG. 3A
Procedure: as §1, with “B). ALN=axillair LN; MLN=mediastinal LN; ILN=iliacal LN. For further details see Example 2A. FIG. 6: Treatment with IPL (non-liposomal aerosol) prevents the typical histo-pathological changes that are associated with an asthma mouse model. For experimental details see Example 2B.” for “B).”

T cells [3] = test: T cell activation measured by IL-2 cytokine production; type: cell-based; settings: for T cell activation measured by IL-2 cytokine production: PMA + calcium ionophore A23187
Procedure: as §1, with “B). ALN=axillair LN; MLN=[…] LN; ILN=iliacal LN. For further details see Example 2A. FIG. 6: Treatment with IPL (non-liposomal aerosol) prevents the typical histo-pathological changes that are associated with an asthma mouse model. For experimental details see Example 2B. FIG. 7: Treatment with PI (aerosol) prevents the eosinophilia that is associated with an asthma mouse model. For experimental details see Example 2B. FIG. 8: effects of intraperitoneal injection of PI in the TNBS colitis model. […] B The percentage of weight during TNBS colitis is shown. Each dot represents the mean of weights of each group per 0.5 day. Error bars indicate the standard error of the mean. Asterisks indicate significant differences (p<0.05) between TNBS treated mice that received i.p. injections of PI and saline.” for “B).”

[4] = Observation after intravenous PI; type: in vivo, mice; settings: 200 μl of PI 2 mg/ml (400 μg) intravenously, 3 hour observation period
Text: It will be recognized by those skilled in the art that the optimal quantity and spacing of individual dosages for achieving the therapeutic effects of the pharmaceutical composition, food item or food supplement described herein may easily be determined by the skilled person. They will be determined by the nature and extent of the condition being treated, as well as by the form, route and site of administration, and the particular individual undergoing treatment, and that such optima can be determined by conventional techniques. Typically, the treatment will involve the administration of inositol phospholipid in amount of approximately 0.001 to 1 gram , preferably 0.005 to 0.5 gram, more preferably 0.01 to 0.1 gram per kilogram of body weight per 24 hours. It will also be appreciated by those skilled in the art that the optimal dosage regimen, i.e. the number of doses, can be ascertained using conventional course of treatment determination tests well known in the art. […] Generally speaking, a therapeutic dosing regimen will involve the administration of the selected dosage formulation comprising an inositol phospholipid, e.g. a PI aerosol spray, at least once daily, preferably one to four times daily, until the symptoms have subsided. Or given in times of remission, in order to prevent a disease flare-up (exacerbation). […]

[5] = system: activated peripheral blood cells; settings: Caselli et al. 1992; cited from earlier work
TNBS colitis = TNBS colitis model, intraperitoneal PI; type: in vivo, mice
Procedure: Colitis was induced as described previously (Scheiffele, F. and Fuss, I J., 2001, Curr. Protocols Immunol. 15.19.1-15.19.14). In short, on day-7 SJL mice were sensitized epicutaneously with 150 μl 2.5% 2,4,6-trinitrobenzene sulfonic acid (TNBS; Sigma) in 50% ethanol. On day 0, mice were challenged, under anesthesia of isoflurane gas, by rectal administration of 150 μl 2.5% TNBS in 50% ethanol. Negative control mice were challenged with 50% ethanol only. […] Positive (TNBS treated) and negative (ethanol treated) control mice were treated with an intraperitoneal (i.p.) injection of 150 μl of saline at 0, 12, 24, 36, 48 and 60 h. The PI treatment group was treated with […] of 5 mg/ml PI suspended in saline at the same time points. Mice were weighted at 0, 12, 24, 36, 48 and 60 h and were sacrificed at 60 h. Colonic tissue was folded into Swiss rolls, fixed in 4% natural buffered formalin solution and embedded in paraffin. Sections of 5 μm thickness were generated, stained with hematoxylin (Vector Laboratories) and eosin (Sigma) and analyzed by microscopy. Histology was quantified by scoring each separate field of view at a 4× magnification from distal to proximal by means of a previously described TNBS scoring system (Scheiffele, F. and Fuss, I J., 2001, Curr. Protocols Immunol. 15.19.1-15.19.14). Single cell suspensions were made of iliac lymph nodes (ILNs) and mesenteric lymph nodes (MLNs) by sieving trough an 80 μm filter and subsequently lymphocytes were cultured and stimulated with 2 μg/ml anti-CD3 and 2 μg/ml anti-CD28 antibodies. After 48 h of culture the supernatant was collected and release of the pro-inflammatory cytokines IFN-γ and IL-17 (Zhang, Z. et al., 2006, Inflamm. Bowel Dis., 12:382-388) and the anti-inflammatory cytokine IL-10 were measured by means of ELISA (IL-17) or CBA (IFN-γ and IL-10).

OVA-induced asthma = test: OVA asthma model, intra-tracheal PI; type: in vivo, mice; settings: PI intra-tracheally before OVA aerosol challenge
Procedure: On days one and eight male wildtype Balb/c mice (Charles Rivers) of 7-10 weeks old were sensitized by intra-peritoneal (i.p.) injection of 20 μg of OVA (Sigma), emulsified in 2.25 mg of alum (AlumImuject; Pierce). On days 15, 16 and 17 mice were sedated and received 80 μl of one of three solutions of PI (0 μg/ml, 200 μg/ml or 2 mg/ml) intra-tracheally (i.t). Subsequently the mice were challenged by 20 minutes of inhalation exposure to 60 μl of aerosols containing OVA (1% in saline). All three groups contained 8 mice. Mice were sacrificed at day 18.
Lungs were flushed with 3 ml saline and the cells in this Broncho Alveolar Lavage (BAL) were identified and quantified through FACS analysis. Subsequently the lungs were freeze-fixed, cut into 5 μm tissue sections and stained with May-Grunwald-Giemsa (MGG). The stained sections were examined for the presence of inflammatory cell infiltration such as eosinophils.

[6] = 24 hour incubation, untreated or 5 ng/ml PMA + 0.1 μg/ml A23187
[7] = anti-CD3/anti-CD28 re-stimulation, 48 h, vs saline treated group, p<0.05, FIG. 8D

O[C@H]1[C@H](O)[C@@H](O)[C@H](O)[C@@H](O)[C@H]1O [myo-inositol, reference compound]
CD1d dependent NKT cell activation (IL-2 present in the supernatants) [1]: no significant suppressive effect

phosphatidyl inositol [PI]
weight loss (oxazolone colitis; 100 μl PI 2 mg/ml intra-rectally 20 min prior to oxazolone challenge): diminished weight loss
survival (oxazolone colitis; 100 μl PI 2 mg/ml intra-rectally 20 min prior to oxazolone challenge, FIG. 4): increased survival
IL-2 production upon ex-vivo stimulation of intestinal T cells (oxazolone colitis; aCD3/aCD28 stimulation, 48 and 72 hours, FIG. 5): suppressed
cellular viability (T cells [2]; [6]): does not significantly affect cellular viability
cellular viability (T cells [2]; up to the highest dose tested (100 μg/ml)): does not affect cellular viability
NKT cell activation (IL-2 present in the supernatants) ([1]; T84D pulsed with alpha-GalactosylCeramide, PI at different concentrations, FIG. 1): Dose-dependent inhibition
CD1d dependent NKT cell activation (IL-2 present in the supernatants) [1]: blocks
T cell activation measured by IL-2 cytokine production (T cells [3]; FIG. 3B): inhibitory effect
reversibility of the suppressive effect (T cells [3]; data not shown): reversible
T cell activation (T cells [3]; phorbol ester and calcium ionophore, or stimulation of CD3 and CD28, FIG. 3B): directly inhibit
symptoms or adverse signs [4]: did not show any symptoms or adverse signs
DNA synthesis in activated peripheral blood cells [5]: only partially effective
general appearance (fur, behavior) (TNBS colitis; PI 5 mg/ml i.p. every 12 h vs saline, FIG. 8A): appeared less diseased
weight loss (TNBS colitis; PI i.p. vs control saline treatment, FIG. 8B): dramatic reduction in weight loss
start of weight recovery (TNBS colitis; PI i.p., saline treated mice did not re-gain weight, FIG. 8B): 1.5 days
IL-10 production (TNBS colitis; anti-CD3/anti-CD28 re-stimulation, 48 h, vs saline treated group, FIG. 8D): no difference
IFN-γ production by MLNs (TNBS colitis; [7]): significantly less production
IL-17 production by ILNs and MLNs (TNBS colitis; [7]): significantly less production
colon histology (TNBS score) (TNBS colitis; day 3, field of view number 5, FIG. 8C): near normal histology
histopathological changes of the lungs (OVA-induced asthma; FIG. 6): reduces
influx of eosinophils (BAL) (OVA-induced asthma; FIG. 7): strongly inhibits

phosphatidyl serine [PS, reference compound]
cellular viability (T cells [2]; [6]): toxic for activated cells in a dose-dependent manner
T cell activation measured by IL-2 cytokine production (T cells [3]; FIG. 3B): stimulatory effect
DNA synthesis in activated peripheral blood cells [5]: inhibition

Source: patent publication US20090176741A1, “MODULATION OF THE IMMUNE SYSTEM BY INOSITOL PHOSPHOLIPIDS” (priority 2006, published 2009)
